In series [1] the target is T1, CHO-K1 cells transfected with human wild type TrkA (Homo sapiens, UniProt P04629).
T1 construct: expressed in transfected cells; host or cells: CHO-K1
As to the kind of experiment: TrkA Cell Assay, phospho-TrkA ELISA (Example B). The series is classed as cell-based. The conditions noted are these: assay of Example B, 30 ng/mL human NGF, read-out: averaged IC50 value, phospho-TrkA. How it is done:
CHO-K1 cells transfected with human wild type TrkA were plated in a 96-well flat-bottom plate at 3×10^5 cells/well in complete DMEM medium containing 10% FBS and allowed to attach for 24 hours at 37° C., 5% CO2. Medium was then replaced with complete serum free assay medium and the cells were serum starved for 1 hour at 37° C., 5% CO2. Cells were treated with Compound 1, 2 or 3 using 1:3 serial dilutions with final concentrations ranging from 1 μM to […]. The compound was incubated on cells for 1 hour at 37° C., 5% CO2. Cells were then stimulated with a final concentration of 30 ng/mL human NGF for 7 minutes at 37° C., 5% CO2. Medium was removed and cells were lysed with lysis buffer containing phosphatase and protease inhibitors. Phospho-TrkA was measured by ELISA (R&D Catalog No. DYC2578). The ELISA captured total TrkA and detected total phosphor-tyrosine. Optical density was measured for each well using a Versamax reader at a wave length of 450 nm. The IC50 values were determined by fitting a four parameter model to the percent of control data.
For orientation: An ELISA detects its analyte on a solid surface through an enzyme-linked reagent.

The nature of series [2]: Liver microsomal clearance, rat. The series is classed as in vitro ADME. The note with it: pH 7.4; Rat liver microsomes; 1 mg/mL; 20 minutes. As for the experimental part:
The predicted hepatic clearance (CLh) value was calculated by scaling the in vitro half-life (t1/2) for stability of the compound in liver microsomes (1 mg/mL; 20 minutes) using the physical and physiological scaling factors used to predict intrinsic clearance (CLint) and hepatic clearance (CLhep) listed in Table 2 and employed in the following equations: […]
where D is the amount of cytochrome P450-related protein per mass of liver, W is the average mass of liver present per weight of animal, C is the liver microsomal concentration, and Q is the species-dependent hepatic blood flow.
A 100 mM potassium phosphate assay buffer solution (KPB) was prepared as follows. Both KH2PO4 and K2HPO4 were dissolved separately in reagent grade water resulting in final concentrations 100 mM. A 75:25 mixture v/v of K2HPO4:KH2PO4 was prepared and the pH of the solution was adjusted to 7.4 using diluted HCl or diluted NaOH solutions. Stock solutions of Compound 1, Compound 2 and Compound 3 were prepared at 10 mM (active compound) in DMSO. The stock solution was diluted immediately before use to 2.5 μM using the KPB solution to create the working standard. All test compounds were completely soluble in DMSO by visual inspection at room temperature. The NADPH-regenerating solution (NRS) was prepared on the day of analysis by diluting one volume of 17 mg/mL NADP^+ with one volume of 78 mg/mL glucose-6-phosphate (both prepared in KPB, pH 7.4) and 7.9 volumes of 20 mM MgCl2. The final concentrations of NADP^+ and glucose-6-phosphate were 1.7 mg/mL and 7.8 mg/mL, respectively. […]
All calculations were performed using BioAssay Enterprise. The mean peak area ratios were calculated by averaging the peak area ratios (n=2) of Compound 1, Compound 2, Compound 3, and the internal standard for each sample. Percent remaining was calculated by determining the ratio of the peak area ratio at each time point to the peak area ratio of the time-zero samples. The rate of loss of test compound (km) was determined by linear regression of −ln(f(t)) versus time. […] The t1/2 was determined dividing ln(2) by km. […]
Background: Liver microsomes are vesicles of endoplasmic reticulum, rich in cytochrome P450 enzymes.

T1 sequence (P04629 33-796): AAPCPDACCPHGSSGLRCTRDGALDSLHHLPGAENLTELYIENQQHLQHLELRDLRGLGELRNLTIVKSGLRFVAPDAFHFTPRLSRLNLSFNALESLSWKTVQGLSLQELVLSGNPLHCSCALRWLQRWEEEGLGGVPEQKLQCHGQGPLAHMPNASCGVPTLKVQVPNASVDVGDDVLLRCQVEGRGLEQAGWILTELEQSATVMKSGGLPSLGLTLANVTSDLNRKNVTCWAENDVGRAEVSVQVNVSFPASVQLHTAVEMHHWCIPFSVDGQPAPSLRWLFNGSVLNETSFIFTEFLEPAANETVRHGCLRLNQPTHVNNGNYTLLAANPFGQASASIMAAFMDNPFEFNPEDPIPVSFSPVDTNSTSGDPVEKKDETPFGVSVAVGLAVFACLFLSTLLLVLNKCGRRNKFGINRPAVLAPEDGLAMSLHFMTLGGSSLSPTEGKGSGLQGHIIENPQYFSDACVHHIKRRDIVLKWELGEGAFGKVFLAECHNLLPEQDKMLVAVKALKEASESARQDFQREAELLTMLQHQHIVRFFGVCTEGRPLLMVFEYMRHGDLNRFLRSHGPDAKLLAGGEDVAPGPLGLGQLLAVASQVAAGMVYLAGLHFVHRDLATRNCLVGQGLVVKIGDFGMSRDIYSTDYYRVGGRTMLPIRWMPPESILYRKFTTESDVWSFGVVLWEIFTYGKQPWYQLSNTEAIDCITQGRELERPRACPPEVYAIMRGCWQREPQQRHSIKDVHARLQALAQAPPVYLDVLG

On to `COCCN1C[C@@H](NC(=O)Nc2c(C)c(-c3cnc(C)nc3)nn2-c2ccccc2)[C@H](c2cccc(F)c2)C1` [Compound 1, 1-((3S,4R)-4-(3-fluorophenyl)-1-(2-methoxyethyl)pyrrolidin-3-yl)-3-(4-methyl-3-(2-methylpyrimidin-5-yl)-1-phenyl-1H-pyrazol-5-yl)urea], for which the IC50 in series [1] was found to be 1.9 nM. For the same compound, the CLhep predicted at 1 μM in series [2] is 22 mL/min/kg.
The corresponding values for `COCCN1C[C@@H](NC(=O)Nc2c(C)c(-c3cnc(C)nc3)nn2-c2ccccc2)[C@H](c2ccc(F)c(F)c2)C1` [Compound 2, 1-((3S,4R)-4-(3,4-difluorophenyl)-1-(2-methoxyethyl)pyrrolidin-3-yl)-3-(4-methyl-3-(2-methylpyrimidin-5-yl)-1-phenyl-1H-pyrazol-5-yl)urea] are 1.3 nM and 22 mL/min/kg.
The corresponding values for `COCCN1C[C@@H](NC(=O)Nc2c(C)c(-c3cnn(C)c3)nn2-c2ccccc2)[C@H](c2ccc(F)cc2)C1` [Compound 3, 1-(1′,4-dimethyl-1-phenyl-1H,1′H-[3,4′-bipyrazol]-5-yl)-3-((3S,4R)-4-(4-fluorophenyl)-1-(2-methoxyethyl)pyrrolidin-3-yl)urea] are 6.1 nM and 23 mL/min/kg.

As usually defined, the IC50 is the concentration that inhibits the measured activity by half.

The record behind these values is patent US10835533B2, “1 -((3S,4R)-4-(3-fluorophenyl)-1-(2-methoxyethyl)pyrrolidin-3-yl)-3-(4-methyl-3-(2-methylpyrimidin-5-yl)-1-phenyl-1H-pyrazol-5-yl)urea as a TrkA kinase inhibitor” (Array BioPharma Inc., priority 2014, dated 2020).
